Test results from patent US20070172957A1, “Methods of identifying anti-inflammatory macrolides” (TAISHO PHARMACEUTICAL CO., LTD., priority 2004, published 2007).

Assays:
A549 cells [1] = assay: A549 microarray comparing macrolides with arachidonic acid pathway inhibitors, with IL-1β stimulation (Appendix C, Tables 6-9), and correlation analysis; format: cell-based; settings: for Total # Differential Genes (95% confidence): A549, threshold 1.3; for FADS1 expression: A549 cells, microarray
From the text: One inhibitor, triacsin C, acts on AA biosynthesis by inhibiting arachidonyl CoA synthetases, blocking the incorporation of free AA into phospholipids. Triacsin C is reasonably specific for AA compared to other fatty acids. However, triacsin C structurally resembles AA so it also may interfere with other steps in the AA pathway. Indomethacin is an inhibitor of COX1 and COX2 enzyme activities and therefore specifically blocks metabolism of AA into prostaglandins. […] It inhibits transcription of PLA2, and transcriptionally and post-transcriptionally regulates COX1 and COX2 activities. Dexamethasone has additional effects unrelated to AA through binding with the glucocorticoid receptor to glucocortcoid response elements.
A549 cells were pre-incubated overnight (17 hours) with macrolides (10 μM FMA-9045, 50 μM clarithromycin, 50 μM roxithromycin, 50 μM josamycin) and 15 μM triacsin C, and pre-incubated 2 hours with 100 nM indomethacin and 100 nM dexamethasone. All cells then were stimulated for 4 hours with IL-1β, because the activation of PLA2 and downstream signaling events generally requires an inflammatory stimulus. The various treatment conditions are shown below in Table 4. Following macrolide and inhibitor pre-treatment and IL-1 stimulation, the cells were lysed, total RNA was collected, and the poly-A+ mRNA fraction was purified. The resulting microarray data (Appendix C) were analyzed using the methods described in the Examples above.
The tables in Appendix C represent the effects of the arachidonic acid pathway inhibitors (“AA pathway inhibitors”) and the effects of the macrolides (“IL1+macrolide effects”). […] In both tables in Appendix C, the genes that meet this criterion (≧1.3 min fold change) are indicated in bold.
Quantitative analysis was done to determine how well the responses to the different AA pathway inhibitors correlated. The correlation values were assigned a p-value to provide statistical confidence to the correlation value. Correlation between experiments, across all spots showing good detection, was assessed by cosine vector angle to generate the data shown in Tables 7-9. A correlation coefficient close to one indicates strong correlation, whereas a value near zero indicates no correlation. P-values for each correlation coefficient were estimated based on a Fisher permutation test. In this test, each spot's expression ratios were randomly re-ordered across experiments and the degree of correlation between experiments was then reassessed. This was done repeatedly.

[2] = Plasma AUC of clarithromycin after single administration to mice; format: in vivo; settings: C57black/6, mouse, oral, 50 mg/kg singly administered, read-out: plasma AUC0-8
Description: (§1) Administration of clarithromycin was carried out orally at the rate of 25, 50 or 100 […] twice daily (morning and evening) during the tobacco smoke exposure period. The plasma AUC0-8 of clarithromycin obtained when 50 mg/kg was singly administered to the mice was 2.677 μg·hr/ml while the plasma AUC0-8 of clarithromycin obtained when 200 mg of clarithromycin was singly administered to a normal human subject was 8.98 μg·hr/ml. The former concentration was substantially lower than the latter one and was an adequate concentration to be used clinically.

THP-1 cells = assay: Microarray of differentially expressed genes in THP-1 cells, +/- LPS, +/- Clarithromycin or FMA9045 (Appendix B, Appendix F); format: cell-based; settings: for Total # Differential Genes (95% confidence): THP-1, min fold change threshold 1.5 (Clari), 1.3 (FMA)
From the text: (§2) The data for each cell line (A549 and THP-1) are presented in Appendices A and B. For each cell line, the data for all of the hybridizations are represented together in the same table. For each hybridization, there are two columns: the weighted mean ratio (wtd mean ratio) and the minimum fold change (min fold change). The “min fold change” represents the minimum change in expression that meets the 95% confidence threshold. It can be estimated from the log ratio and standard deviation, assuming that the uncertainty in the ratio is normally distributed. […] See also Cheng Li and Wing Hung Wong, “Model-based analysis of oligonucleotide arrays: model validation, design issues and standard error application,” Genome Biology 2001 2(8):research0032.1-0032.11 (published 3 Aug. 2001).
(§3) The analysis method to generate these tables was similar for A549 and THP-1, cells. […] It is important to note that the fold change threshold is an absolute number, and the direction of change (increased or decreased expression) must be determined by the looking at the weighted mean ratio. The significance threshold criteria are included in parentheses in each “min fold change” column. The weighted mean ratios representing significant differentials (95% confidence, p value <0.05) are in bold. The “Spot IDs” correspond to publicly available cDNA sequences for the region of the gene represented at that spot on the microarray chip.
(§4) For the A549 and THP-1 cell lines (Appendix A and B, respectively), the first table for each cell line (“total differentials”) represents all of the genes that show differential expression in at least one of the hybridizations. The second table for A549 and THP-1 cells (“drug effects, sum ≧4.5” and “drug effects, sum ≧5”, respectively) has an additional final column, “sum of min fold change.” This column represents the sum of the minimum fold changes for all of the groups except the stimulus alone. This column was used to rank the genes in order of the greatest global drug effect, independent of whether the drug used was Clarithromycin or FMA9045 and independent of stimulus effect.
For THP-1 cells, a sum min fold change ≧5.0 was used as the threshold for ranking the most highly regulated drug effects. In both tables in Appendix B, the genes that meet this criterion (sum ≧5) are in bold and in italics. A larger sum min fold change threshold was used for THP-1 cells, because the macrolide response in this cell line was more robust than that in A549 cells.
The influence of a macrolide compound on the level of expression of the gene of the material related to inflammatory disease of the lung is summarized in Appendix F. In Appendix F, ‘+/−Clari, wtd means’ denotes gene induction (suppression) when clarithromycin is added to THP-1 cells, and the larger the figure, the more the gene is expressed. Furthermore, ‘+LPS+/−Clari, wtd means’ denotes gene induction (suppression) when clarithromycin is added to LSP-stimulated THP-1 cells, and the smaller the figure, the more the gene expression is suppressed.

[3] = Plasma AUC of clarithromycin after single administration to a normal human subject; format: in vivo; settings: 200 mg singly administered, read-out: plasma AUC0-8
Description: as §1

A549 cells [4] = assay: Microarray of differentially expressed genes in A549 cells, +/- IL-1β, +/- Clarithromycin or FMA9045 (Appendix A); format: cell-based; settings: for Total # Differential Genes (95% confidence): A549, min fold change threshold 1.3
From the text: as §2, §3, §4
As noted above, a sum min fold change ≧4.5 was used as the threshold for ranking the most highly regulated drug effects. In both tables in Appendix A, the genes that meet this criterion (sum ≧4.5) are in bold, and those genes that are bold and italics are the most highly regulated genes and have a min fold change ≧5.0.

[5] = IL1 + Triacsin vs IL1 + Triacsin + macrolide 50 μM
[6] = IL1 vs IL1 + drug, macrolides 50 μM (FMA 10 μM), triacsin C 15 μM, indomethacin and dexamethasone 100 nM
[7] = A549 + IL-1β, of the genes regulated by the labelled drug

For CC[C@H]1OC(=O)[C@H](C)[C@@H](O[C@H]2C[C@@](C)(OC)[C@@H](O)[C@H](C)O2)[C@H](C)[C@@H](O[C@@H]2O[C@H](C)C[C@H](N(C)C)[C@H]2O)[C@](C)(O)C[C@@H](C)/C(=N\OCOCCOC)[C@H](C)[C@@H](O)[C@]1(C)O [roxithromycin], the “Total # Differential Genes (95% confidence)” value (A549 cells [1]; [5]) was 7, the “Total # Differential Genes (95% confidence)” value (A549 cells [1]; [6]) was 65 and the FADS1 expression (A549 cells [1]) was “differentially expressed”.

With CC[C@H]1OC(=O)[C@H](C)[C@@H](O[C@H]2C[C@@](C)(OC)[C@@H](O)[C@H](C)O2)[C@H](C)[C@@H](O[C@@H]2O[C@H](C)C[C@H](N(C)C)[C@H]2O)[C@](C)(OC)C[C@@H](C)C(=O)[C@H](C)[C@@H](O)[C@]1(C)O [clarithromycin] the AUC(0-t) [2] was 2680 ng·h/mL, the “expression of SERPINB3 gene” value (THP-1 cells; Category 1, Appendix F) was “enhancing the expression” and the “Total # Differential Genes (95% confidence)” value (THP-1 cells; +/- drug alone) was 127. The “Total # Differential Genes (95% confidence)” value (THP-1 cells; LPS +/- drug) was 120, the “LPS +/− clari, wtd mean ratio” value (THP-1 cells; THP-1 cells with LPS, gene given in each table row) was 0.9 and the “LPS +/− clari, wtd mean ratio” value (THP-1 cells; THP-1 cells, LPS stimulated, with vs without clari, gene/spot = table row) was 0.9. The “Clari treated, wtd mean ratio” value (THP-1 cells; THP-1 cells, no LPS, gene given in each table row) was 0.9, the “Clari treated, wtd mean ratio” value (THP-1 cells; THP-1 cells, microarray expression ratio, gene/spot = table row) was 0.9 and the “expression of proteinase genes (MMP12, MMP9, MMP19, cathepsin K, cathepsin C)” value (THP-1 cells; induced during inflammatory stimulation, Category 2) was “suppresses the expression”. For the same compound, the “expression of the chemokine gene” value (THP-1 cells; induced during inflammatory stimulation, Category 3) was “suppresses expression”, the AUC(0-t) [3] was 8980 ng·h/mL and the “Total # Differential Genes (95% confidence)” value (A549 cells [4]; +/- drug alone) was 117. The “Total # Differential Genes (95% confidence)” value (A549 cells [4]; IL-1 +/- drug) was 127, the “IL1b +/− clari, wtd mean ratio” value (A549 cells [4]; A549 cells with IL1b stimulation, microarray expression ratio, gene = SpotID/GeneSymbol) was 0.9 and the “Clari treated, wtd mean ratio” value (A549 cells [4]; A549 cells, Clari treated, no IL1, expression ratio of the gene/spot of the table line) was 0.9. For the same compound, the “IL1b +/− clari, wtd mean ratio” value (A549 cells [4]; A549 cells, IL1b stimulated, with vs without clari, gene/spot of the table line) was 0.9, the “Clari treated, wtd mean ratio” value (A549 cells [4]; A549 cells, microarray expression ratio, gene = SpotID/GeneSymbol) was 0.9 and the “Clari treated, wtd mean ratio” value (A549 cells [4]; A549 cells, per microarray spot/gene, Clari treated, no IL1) was 0.9. For the same compound, the “IL1b +/− clari, wtd mean ratio” value (A549 cells [4]; A549 cells, per microarray spot/gene, IL1b stimulated, with vs without clari) was 0.9, the “Number of differentially expressed genes also differential in response to indomethacin” value (A549 cells [1]; [7]) was 25 and the “Number of differentially expressed genes also differential in response to triacsin C” value (A549 cells [1]; [7]) was “Forty-two”. For the same compound, the “Total # Differential Genes (95% confidence)” value (A549 cells [1]; [5]) was 4, the “Total # Differential Genes (95% confidence)” value (A549 cells [1]; [6]) was 54 and the FADS1 expression (A549 cells [1]) was “differentially expressed”.

For CO[C@@H]1[C@@H](O[C@@H]2O[C@H](C)[C@@H](O[C@H]3C[C@@](C)(O)[C@@H](OC(=O)CC(C)C)[C@H](C)O3)[C@H](N(C)C)[C@H]2O)[C@@H](CC=O)C[C@@H](C)[C@@H](O)/C=C/C=C/C[C@@H](C)OC(=O)C[C@H]1OC(C)=O [josamycin], the “Total # Differential Genes (95% confidence)” value (A549 cells [1]; [6]) was 73.
